In experiment [1] the target is T1, AHR (Homo sapiens, UniProt P35869).
T1 construct: endogenous in cells; host or cells: HepG2 (human), DRE-luciferase reporter stably or transiently transfected
T1 sequence (P35869 11-848): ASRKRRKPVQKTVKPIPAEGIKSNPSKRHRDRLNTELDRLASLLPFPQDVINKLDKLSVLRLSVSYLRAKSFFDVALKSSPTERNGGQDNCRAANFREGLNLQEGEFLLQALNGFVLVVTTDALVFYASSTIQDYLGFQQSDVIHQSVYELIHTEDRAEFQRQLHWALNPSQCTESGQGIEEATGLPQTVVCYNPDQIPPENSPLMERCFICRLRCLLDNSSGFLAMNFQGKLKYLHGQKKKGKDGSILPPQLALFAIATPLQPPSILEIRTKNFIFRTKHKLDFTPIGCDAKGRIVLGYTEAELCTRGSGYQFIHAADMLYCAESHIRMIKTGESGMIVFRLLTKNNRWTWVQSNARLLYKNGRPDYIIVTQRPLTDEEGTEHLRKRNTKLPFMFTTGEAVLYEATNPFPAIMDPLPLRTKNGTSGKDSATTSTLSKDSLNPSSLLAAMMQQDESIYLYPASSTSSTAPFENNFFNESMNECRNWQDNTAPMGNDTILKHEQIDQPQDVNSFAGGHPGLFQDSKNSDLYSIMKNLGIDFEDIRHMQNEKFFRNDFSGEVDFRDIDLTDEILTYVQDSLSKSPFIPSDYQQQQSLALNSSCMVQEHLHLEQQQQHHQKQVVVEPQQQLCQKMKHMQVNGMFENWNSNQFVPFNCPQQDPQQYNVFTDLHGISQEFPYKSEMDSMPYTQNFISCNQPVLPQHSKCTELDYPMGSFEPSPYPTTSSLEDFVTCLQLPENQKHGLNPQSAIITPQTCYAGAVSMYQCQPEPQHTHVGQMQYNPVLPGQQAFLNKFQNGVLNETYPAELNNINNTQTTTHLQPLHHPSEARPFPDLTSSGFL
Nature of the experiment: DRE-Luciferase Reporter Assay, HepG2, agonist. To be noted: HepG2 cells, agonist mode. Type of experiment: cell-based. On the procedure: (§1) AHR binds to Dioxin Responsive Elements (DRE) upstream of genes that it activates. One measure of AHR activity is activation of a reporter gene, such as luciferase, downstream of one or multiple DRE elements. Luciferase activity will reflect activation and inhibition of AHR in the cells expressing this reporter.
(§2) Murine Hepa1-6 or Hepa-1c1c7 or other murine cell line with a DRE-luciferase reporter either stably or transiently transfected are plated in media in plates (96-well, 384-well or other plates) and incubated overnight at 37 C in a CO2 incubator. Likewise, human HepG2 or other human cell line with a DRE-luciferase reporter either stably or transiently transfected are plated in media in plates (96-well, 384-well or other plates) and incubated overnight at 37 C in a CO2 incubator.
(§3) The next day, an AHR agonist compound is added. Cells are incubated for 6, 16 or 24 hours or another time point and then lysed for determination of luciferase activity as a read-out of the AHR activation. Luciferase can be measured with a commercial kit such as the Promega Luciferase kit or any kit or reagents that provide the luciferin substrate for measuring luciferase activity. The level of luciferase with only activating ligand (e.g. such as TCDD, kynurenine, ITE (2-(1H-indole-3-ylcarbonyl)-4-thiazolecarboxylic methyl ester), VAF347, BNF (beta-naphthoflavone), ICZ (6-formylindolo(3,2-b) carbazole or other AHR ligands) added is the maximum signal while the luciferase with no ligand is the minimum signal. EC50s can be determined as the concentration which activates half of the maximum luciferase activity.

Experiment [2] has as its target T2, AHR (Mus musculus, UniProt P30561).
T2 construct: endogenous in cells; host or cells: Hepa1-6 / Hepa1.6 (murine hepatoma); DRE-luciferase reporter transfected in A3, no transfection in A2
Nature of the experiment: P450 CYP1A1 Luciferase Assay, Hepa1.6, agonist. Type of experiment: cell-based, murine. To be noted: Hepa1.6 cells, CYP1A1 enzyme activity read-out, agonist mode; Table 2. On the procedure: AHR binds to Dioxin Responsive Elements (DRE) upstream of genes that it activates. One measure of AHR activity is P450 CYP1A1 protein levels determined by measuring CYP1A1 enzyme activity using a luminogenic CYP1A1 luciferin-based substrate. Luciferase activity will reflect CYP1A1 activity resulting from activation of AHR in the cells.
Murine Hepa1-6 or Hepa-1c1c7 or other murine cell line, human HepG2 or other human cell line are plated in media (96-well, 384-well or other plates) and incubated overnight at 37 C in a CO2 incubator.
as §3, with “lysed and incubated with a CYP1A1 luciferase-based substrate (e.g., Luciferin-CEE)” for “lysed”, “3, 6, or 12 hours of another time point. Determination” for “determination”, “CYP1A1 enzyme activity” for “the AHR activation. Luciferase”, “P450 Glo CYP1A1 detection reagent” for “Luciferase kit”, “provide” for “provide the luciferin substrate”, “(e.g.,” for “(e.g.”

Experiment [3] deals with T2, AHR. Nature of the experiment: DRE-Luciferase Reporter Assay, Hepa1.6, agonist. Type of experiment: cell-based, murine. The settings on record: Hepa1.6 cells, agonist mode. On the procedure:
as §1, §2, §3

[4] abbreviates: Table 2, read-out: DRE-Luc HepG2 - Agonist: Average EC50.
Where [5] appears, read: Table 3, read-out: DRE-Luc HepG2 - Agonist: Average EC50.
The mark [6] stands for this setting: DRE-Luc Hepa1.6 - Agonist: Average EC50 (μM), Table 3.
[7] abbreviates: Table 3, read-out: DRE-Luc Hepa1.6 - Agonist: Average EC50.

Read-outs that look alike come from different tables or passages of the source.

T2 sequence (P30561 10-805 limits assumed): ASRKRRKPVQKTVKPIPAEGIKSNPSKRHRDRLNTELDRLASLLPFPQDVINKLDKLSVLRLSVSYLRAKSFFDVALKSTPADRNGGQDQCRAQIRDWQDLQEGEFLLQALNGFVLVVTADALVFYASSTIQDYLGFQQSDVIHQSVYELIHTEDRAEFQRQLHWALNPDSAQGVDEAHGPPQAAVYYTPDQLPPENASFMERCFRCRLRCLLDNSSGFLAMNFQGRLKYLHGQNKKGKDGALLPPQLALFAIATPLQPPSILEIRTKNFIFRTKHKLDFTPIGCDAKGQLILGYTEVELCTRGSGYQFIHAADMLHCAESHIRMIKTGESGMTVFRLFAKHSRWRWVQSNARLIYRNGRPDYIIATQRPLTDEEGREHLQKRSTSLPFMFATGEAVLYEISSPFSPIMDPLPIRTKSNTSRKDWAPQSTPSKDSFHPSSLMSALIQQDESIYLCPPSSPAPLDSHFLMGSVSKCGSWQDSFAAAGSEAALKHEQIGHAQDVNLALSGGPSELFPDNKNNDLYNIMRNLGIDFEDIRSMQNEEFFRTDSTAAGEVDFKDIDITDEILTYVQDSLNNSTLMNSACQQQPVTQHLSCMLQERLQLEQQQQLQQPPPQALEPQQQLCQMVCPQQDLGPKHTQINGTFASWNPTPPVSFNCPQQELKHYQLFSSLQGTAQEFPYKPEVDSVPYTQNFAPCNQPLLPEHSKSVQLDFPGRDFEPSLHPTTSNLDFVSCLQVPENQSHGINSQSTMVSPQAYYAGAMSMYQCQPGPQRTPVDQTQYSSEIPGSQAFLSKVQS
T2 sequence (P11499 whole entry partner): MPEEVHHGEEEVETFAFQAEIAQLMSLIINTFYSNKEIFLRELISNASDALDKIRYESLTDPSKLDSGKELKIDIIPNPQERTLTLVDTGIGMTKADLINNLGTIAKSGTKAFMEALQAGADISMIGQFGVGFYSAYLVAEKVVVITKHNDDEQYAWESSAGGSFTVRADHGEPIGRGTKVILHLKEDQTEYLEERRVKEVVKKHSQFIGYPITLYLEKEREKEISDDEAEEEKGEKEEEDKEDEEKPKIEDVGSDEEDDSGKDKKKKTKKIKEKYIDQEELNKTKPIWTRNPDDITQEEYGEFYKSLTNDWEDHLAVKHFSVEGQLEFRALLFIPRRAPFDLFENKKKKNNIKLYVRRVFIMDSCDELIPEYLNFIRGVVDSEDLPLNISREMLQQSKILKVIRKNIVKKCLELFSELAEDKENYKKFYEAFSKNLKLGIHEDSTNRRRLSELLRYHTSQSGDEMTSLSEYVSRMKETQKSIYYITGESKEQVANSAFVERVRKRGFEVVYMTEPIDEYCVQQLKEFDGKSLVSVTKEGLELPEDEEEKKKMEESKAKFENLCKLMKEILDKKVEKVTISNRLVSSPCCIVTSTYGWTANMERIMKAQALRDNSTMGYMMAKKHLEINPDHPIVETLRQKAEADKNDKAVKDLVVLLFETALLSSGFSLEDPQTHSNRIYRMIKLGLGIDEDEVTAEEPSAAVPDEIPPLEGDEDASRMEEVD
T2 sequence (O08915 whole entry partner): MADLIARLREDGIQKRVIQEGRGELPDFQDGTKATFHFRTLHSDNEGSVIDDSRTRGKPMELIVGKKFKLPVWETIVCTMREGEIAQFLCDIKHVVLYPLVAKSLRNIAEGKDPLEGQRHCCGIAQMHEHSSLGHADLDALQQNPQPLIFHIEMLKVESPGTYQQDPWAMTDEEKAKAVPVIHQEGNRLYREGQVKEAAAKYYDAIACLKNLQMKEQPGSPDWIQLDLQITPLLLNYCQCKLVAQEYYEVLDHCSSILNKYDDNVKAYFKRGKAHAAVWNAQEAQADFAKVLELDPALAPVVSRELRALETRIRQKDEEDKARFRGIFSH

Take `O=C(c1nc([C@H]2CC[C@@H](C(=O)O)CC2)cs1)c1c[nH]c2ccccc12` [Compound I-9]: the EC50 at AHR [1] (setting [4]) was 0.1 to 1 µM; on AHR [2] it was greater than 1 µM.

On to `CC(C)c1csc(C(=O)c2c[nH]c3ccccc23)n1` [Compound P-2], for which the EC50 on AHR [1] (setting [4]) was less than 0.01 µM; on AHR [2], greater than 1 µM.

Turning to `COC(=O)c1ccc2c(C(=O)c3nc(C(C)C)cs3)c[nH]c2c1` [Compound I-58], the EC50 on AHR [1] (setting [5]) and on AHR [3] (setting [6]) was 0.01 to 0.1 µM throughout.

As to `O=C(c1nc([C@H]2CC[C@H](C(=O)O)CC2)cs1)c1c[nH]c2ccccc12` [Compound I-4], the EC50 on AHR [1] (setting [4]) was 0.1 to 1 µM; on AHR [2] it was greater than 1 µM.

Consider `CC(C)c1csc(C(=O)c2c[nH]c3c(C(=O)O)cccc23)n1` [Compound I-89], for which the EC50 at AHR [1] (setting [5]) and at AHR [3] (setting [7]) was greater than 1 µM in each case.

Turning to `COC(=O)c1nc(C(=O)c2c[nH]c3ccccc23)sc1C(F)(F)F` [Compound I-54], the EC50 on AHR [1] (setting [5]) was less than 0.01 µM; at AHR [3] (setting [7]), greater than 1 µM.

Regarding `C[N+]1(C)CCC(c2csc(C(=O)c3c[nH]c4ccccc34)n2)CC1` [Compound I-8], the EC50 at AHR [1] (setting [4]) was 0.1 to 1 µM; at AHR [2] it was greater than 1 µM.

Turning to `O=C(O)CCC(=O)N1CCC(c2csc(C(=O)c3c[nH]c4ccccc34)n2)CC1` [Compound I-18], the EC50 on AHR [1] (setting [4]) and at AHR [2] was greater than 1 µM each time.

Consider `N#Cc1nc(C(=O)c2c[nH]c3ccccc23)sc1N` [Compound I-50], for which the EC50 at AHR [1] (setting [5]) and at AHR [3] (setting [6]) was less than 0.01 µM each time.

`O=C(c1nc([C@H]2CC[C@H](O)CC2)cs1)c1c[nH]c2ccccc12` [Compound I-52]: the EC50 is 0.01 to 0.1 µM at AHR [1] (setting [5]) and greater than 1 µM on AHR [3] (setting [7]).

Consider `COc1ccc2c(C(=O)c3nc(C(C)(C)C)cs3)c[nH]c2c1` [Compound I-60], for which the EC50 at AHR [1] (setting [5]) and on AHR [3] (setting [6]) was less than 0.01 µM in each case.

Regarding `O=C(O)CCCN1CCC(c2csc(C(=O)c3c[nH]c4ccccc34)n2)CC1` [Compound I-5], the EC50 is 0.1 to 1 µM at AHR [1] (setting [4]) and greater than 1 µM at AHR [2].

`CC(C)c1csc(C(=O)c2c[nH]c3ccc(C(=O)O)cc23)n1` [Compound I-78, 3-(4-Isopropylthiazole-2-carbonyl)-1H-indole-5-carboxylic acid]: the EC50 was 0.1 to 1 µM on AHR [1] (setting [5]) and greater than 1 µM on AHR [3] (setting [7]).

Consider `COc1ccc2c(C(=O)c3nc(C(C)C)cs3)c[nH]c2c1` [Compound I-2], for which the results for the EC50 at AHR [1] (setting [4]) and on AHR [2] were less than 0.01 µM and greater than 1 µM, respectively.

Take `CC(C)c1csc(C(=O)c2c[nH]c3cc(C(=O)O)ccc23)n1` [Compound I-62]: the EC50 at AHR [1] (setting [5]) and at AHR [3] (setting [6]) was greater than 1 µM throughout.

Regarding `CNC(=O)c1csc(C(=O)c2c[nH]c3ccccc23)n1` [Compound P-3], on AHR [2], the EC50 is greater than 1 µM.

As for `O=C(c1nc([C@H]2CC[C@@H](O)CC2)cs1)c1c[nH]c2ccccc12` [Compound I-47], the EC50 at AHR [1] (setting [4]) and at AHR [2] was greater than 1 µM each time.

As for `CC(C)c1csc(C(=O)c2c[nH]c3ccc(S(=O)(=O)O)cc23)n1` [Compound I-19], the EC50 at AHR [1] (setting [4]) and on AHR [2] was greater than 1 µM each time.

Consider `C[N+](C)(C)CCCN1CCC(c2csc(C(=O)c3c[nH]c4ccccc34)n2)CC1` [Compound I-20], for which the EC50 at AHR [1] (setting [4]) and on AHR [2] was greater than 1 µM throughout.

With `Cc1sc(C(=O)c2c[nH]c3ccccc23)nc1C(=O)OC(C)C` [Compound I-11], the EC50 on AHR [1] (setting [4]) was 0.1 to 1 µM; on AHR [2], greater than 1 µM.

In the case of `O=C(c1nc(C(F)(F)F)cs1)c1c[nH]c2ccccc12` [Compound I-92], the EC50 on AHR [1] (setting [5]) and on AHR [3] (setting [6]) was less than 0.01 µM each time.

As to `Cc1sc(C(=O)c2c[nH]c3ccccc23)nc1C(=O)OC1CC[N+](C)(C)CC1` [Compound I-10], the EC50 at AHR [1] (setting [4]) is 0.1 to 1 µM; on AHR [2], greater than 1 µM.

For `COC(=O)c1nc(C(=O)c2c[nH]c3ccccc23)sc1N(C)C` [Compound I-95], the EC50 at AHR [1] (setting [5]) was 0.01 to 0.1 µM; on AHR [3] (setting [7]), greater than 1 µM.

For the compound `CNc1sc(C(=O)c2c[nH]c3ccccc23)nc1C(=O)OC` [Compound I-84, Methyl 2-(1H-indole-3-carbonyl)-5-(methylamino)thiazole-4-carboxylate], the EC50 on AHR [1] (setting [5]) and on AHR [3] (setting [6]) was less than 0.01 µM each time.

In the case of `COC(=O)c1csc(C(=O)c2c[nH]c3ccccc23)n1` [Compound P-4], the EC50 on AHR [1] (setting [4]) is 0.01 to 0.1 µM; at AHR [2] it was greater than 1 µM.

As to `CC(C)(C)c1csc(C(=O)c2c[nH]c3ccccc23)n1` [Compound I-61], the half-maximal effective concentration (EC50) at AHR [1] (setting [5]) and on AHR [3] (setting [6]) was less than 0.01 µM throughout.

On to `CC(C)c1csc(C(=O)c2c[nH]c3cc(C(=O)O)ccc23)n1` [Compound I-59], for which the EC50 on AHR [1] (setting [5]) and on AHR [3] (setting [6]) was 0.1 to 1 µM in each case.

On to `C[N+](C)(C)CCC(=O)N1CCC(c2csc(C(=O)c3c[nH]c4ccccc34)n2)CC1` [Compound I-23], for which the half-maximal effective concentration (EC50) at AHR [1] (setting [4]) and on AHR [2] was greater than 1 µM in each case.

In the case of `COC(=O)c1nc(C(=O)c2c[nH]c3ccccc23)sc1N` [Compound I-56], the EC50 on AHR [1] (setting [5]) and at AHR [3] (setting [6]) was less than 0.01 µM each time.

For the compound `CCc1csc(C(=O)c2c[nH]c3ccccc23)n1` [Compound I-57], the EC50 at AHR [1] (setting [5]) and at AHR [3] (setting [6]) was less than 0.01 µM throughout.

Take `COC(=O)c1ccc2c(C(=O)c3nc(C(=O)OC)c(N)s3)c[nH]c2c1` [Compound I-96]: the EC50 at AHR [1] (setting [5]) and at AHR [3] (setting [6]) was less than 0.01 µM throughout.

As to `COC(=O)c1nc(C(=O)c2c[nH]c3ccccc23)sc1Nc1ccccc1` [Compound I-91], the EC50 at AHR [1] (setting [5]) and at AHR [3] (setting [7]) was greater than 1 µM in each case.

With `COC(=O)c1csc(C(=O)c2c[nH]c3cccc(N)c23)n1` [Compound I-93], the values for the EC50 at AHR [1] (setting [5]) and on AHR [3] (setting [6]) were 0.1 to 1 µM and 0.01 to 0.1 µM, respectively.

With `CN1CCC(c2csc(C(=O)c3c[nH]c4ccccc34)n2)CC1` [Compound I-7], the EC50 was 0.1 to 1 µM at AHR [1] (setting [4]) and greater than 1 µM at AHR [2].

With `COC(=O)c1nc(C(=O)c2c[nH]c3ccccc23)sc1Cl` [Compound I-55], the values for the EC50 at AHR [1] (setting [5]) and at AHR [3] (setting [6]) were less than 0.01 µM and 0.01 to 0.1 µM, respectively.

These data come from patent US20210300912A1 (Ikena Oncology, Inc., priority 2019, published 2021).
